Patent US20080200439A1, “Methods and compositions for modulating BK channel activity and vasodilation” (University of Tennessee Research Foundation, priority 2006, published 2008)
Several values for one entry are separate records, joined by “and”; a condition that tells them apart may be missing. Equal entries are not always repeated. Where two headings read alike, the source gives them in different places.

Columns and labels:
[1] = biological target: native BK channels in rat cerebral artery myocytes (Rattus norvegicus, UniProt P97678+Q62976); assay: Inside-out patch-clamp of native BK channels in freshly isolated cerebral artery myocytes; format: cell-based; conditions: I/O patches, free Ca2+i 3 μM
Procedure: Myocyte Isolation. Basilar and middle cerebral arteries were dissected out from each brain under a stereozoom microscope (Nikon C-PS, Tokio, Japan) and placed into ice-cold “dissociation medium” (DM) (mM): 0.16 CaCl2, 0.49 EDTA, 10 HEPES, 5 KCl, 0.5 KH2PO4, 2 MgCl2, 110 NaCl, 0.5 NaH2PO4, 10 NaHCO3, 0.02 phenol red, 10 taurine, 10 glucose. Each artery was cut into 1-2 mm long rings (˜30 rings/experiment). Rings were put in 3 ml DM containing 0.03% papain, 0.05% bovine serum albumin (BSA) and 0.004% dithiothreitol (DTT) for 15 min at 37° C. in a polypropylene centrifuge tube, and then incubated in a shaking water bath at 37° C. and 60 oscillations/min. for 15 min. The prepartion was then centrifuged several times as described (Liu et al., 2004). […]
Electrophysiology. […] Single-channel and macroscopic currents were recorded from inside-out (I/O) or outside-out (O/O) patches. […] Nominal free Ca^2+ was calculated with MaxChelator Sliders (C. Patton, Stanford University, California, United States of America) and validated experimentally using Ca^2+-selective electrodes (Corning Incorporated Science Products Division, Corning, N.Y., United States of America). […]
(§1) Currents were recorded using an EPC8 amplifier (HEKA Electronics, Lambrecht/Pfalz, Germany) at 1 kHz using a low-pass, eight-pole Bessel filter 902LPF (Frequency Devices, Haverhill, Mass., United States of America). […]

cbv1+β1 channels = cbv1+β1 channels (UniProt Q16558+Q62976); assay: Patch-clamp of heteromeric cbv1+β1 channels expressed in Xenopus oocytes; format: cell-based, rat
Source text: cRNA Preparation and Injection into Xenopus Oocytes. Full-length cDNA coding for cbv1-subunits was cloned from rat cerebral artery myocytes by PCR and ligated to the PCR-XL-TOPO cloning vector (Invitrogen Corp., Carlsbad, Calif., United States of America) (Jaggar et al., 2005). cDNA coding for cbv1-subunits was cleaved from the cloning vector by BamHI (Invitrogen Corp., Carlsbad, Calif., United States of America) and XhoI (Promega, Madison, Wis., United States of America) and directly inserted into the pOX vector for expression in Xenopus oocytes. pOX-cbv1 was linearized with NotI (Promega, Madison, Wis., United States of America) and transcribed in vitro using T3 polymerase. Beta,-subunit cDNA inserted into the EcoR I/Sal I sites of the pCl-neo expression vector was linearized with NotI and transcribed in vitro using T7 polymerase. Beta4-subunit cDNA inserted into the pOx vector was linearized by NotI and transcribed using T3 polymerase. The mMessage-mMachine kit (Ambion Inc., Austin, Tex., United States of America) was used for transcription. The pOX vector and the cDNA coding for β1-subunits were generous gifts from Aguan Wei (Washington University, Saint Louis, Mo., United States of America) and Maria Garcia (Merck Research Laboratories, Whitehouse Station, N.J., United States of America).
Oocytes were removed from Xenopus laevis and prepared as described (Dopico et al., 1998). cRNA was dissolved in […] at 5 (cbv1) and 15 (β1 or β4) ng/μl; 1-μl aliquots were stored at −70° C. Cbv1 cRNA was injected alone (2.5 ng/μp) or coinjected with either β1 or β4 (7.5 ng/μl) cRNAs, giving molar ratios ≧6:1 (β:α). cRNA injection (23 nl/oocyte) was conducted using a modified micropipette (Drummond Scientific Co., Broomall, Pa., United States of America). The interval between injection and patch-clamp recordings was 48-72 h.
Electrophysiology. Oocytes were prepared for patch-clamp recordings as described (Dopico et al., 1998). Single-channel and macroscopic currents were recorded from inside-out (I/O) or outside-out (O/O) patches. For experiments with oocytes, both bath and electrode solutions contained (mM) 135 K^+ gluconate, 5 EGTA, 1 MgCl2, 15 HEPES, 10 glucose, pH 7.35. For experiments with myocytes, KCl substituted for K^+ gluconate. In all experiments, free Ca^2+ in solution was adjusted to the desired value by adding CaCl2. In most studies, free Ca^2+ in electrode solution=10 μM. In O/O studies with 17β-estradiol, however, free Ca^2+ in the electrode solution=0.3 μM. Nominal free Ca^2+ was calculated with MaxChelator Sliders (C. Patton, Stanford University, California, United States of America) and validated experimentally using Ca^2+-selective electrodes (Corning Incorporated Science Products Division, Corning, N.Y., United States of America).
Patch-recording electrodes were made as described (Dopico et al., 1998). Immediately before recording, the tip of each electrode was fire-polished on a microforge WPI MF-200 (World Precision Instruments, Inc., Sarasota, Fla., United States of America) to give resistances of 5-9 MD when filled with solution. An agar bridge with gluconate or Cl^− as the main anion (for oocyte and myocyte experiments, respectively) was used as ground electrode. After excision from the cell, the membrane patch was exposed to a stream of bath solution containing each agent at final concentration. Solutions were applied onto the patches using a pressurized system DAD12 (ALA Scientific Instruments, New York, N.Y., United States of America) via a micropipette tip with an internal diameter of 100 μm. Experiments were carried out at room temperature (21° C.).
as §1

Sequence of cbv1+β1 channels (Q62976 1-1148 isoform Q62976-2): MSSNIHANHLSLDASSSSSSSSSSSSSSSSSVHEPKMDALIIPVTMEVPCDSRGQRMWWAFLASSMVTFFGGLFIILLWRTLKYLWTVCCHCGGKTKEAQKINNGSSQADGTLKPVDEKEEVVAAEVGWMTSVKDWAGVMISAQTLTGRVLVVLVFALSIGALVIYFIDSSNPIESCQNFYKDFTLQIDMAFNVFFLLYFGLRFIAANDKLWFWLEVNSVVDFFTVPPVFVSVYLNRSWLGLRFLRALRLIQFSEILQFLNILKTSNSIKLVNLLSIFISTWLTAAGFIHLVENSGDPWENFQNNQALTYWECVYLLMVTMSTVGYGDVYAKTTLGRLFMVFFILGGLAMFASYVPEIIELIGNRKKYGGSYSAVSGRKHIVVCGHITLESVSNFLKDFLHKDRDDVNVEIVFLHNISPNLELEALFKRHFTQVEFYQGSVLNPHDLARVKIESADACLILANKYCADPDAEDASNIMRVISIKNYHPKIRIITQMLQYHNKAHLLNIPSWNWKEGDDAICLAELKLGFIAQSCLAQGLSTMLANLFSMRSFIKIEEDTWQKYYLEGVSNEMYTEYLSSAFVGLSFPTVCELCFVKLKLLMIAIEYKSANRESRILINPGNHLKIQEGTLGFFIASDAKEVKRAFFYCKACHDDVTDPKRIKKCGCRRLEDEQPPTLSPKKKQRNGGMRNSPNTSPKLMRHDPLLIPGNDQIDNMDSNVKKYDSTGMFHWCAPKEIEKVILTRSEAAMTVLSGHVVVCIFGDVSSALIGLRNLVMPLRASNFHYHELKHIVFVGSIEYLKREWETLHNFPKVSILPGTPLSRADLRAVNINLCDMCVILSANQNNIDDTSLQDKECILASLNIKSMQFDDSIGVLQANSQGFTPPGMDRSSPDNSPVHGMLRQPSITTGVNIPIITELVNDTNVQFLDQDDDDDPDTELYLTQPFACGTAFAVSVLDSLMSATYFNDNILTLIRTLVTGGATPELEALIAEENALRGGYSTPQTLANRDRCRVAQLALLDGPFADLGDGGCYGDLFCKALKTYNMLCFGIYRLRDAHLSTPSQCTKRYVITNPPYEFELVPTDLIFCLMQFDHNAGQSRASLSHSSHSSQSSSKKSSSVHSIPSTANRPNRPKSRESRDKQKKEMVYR
Sequence of cbv1+β1 channels (Q16558 whole entry): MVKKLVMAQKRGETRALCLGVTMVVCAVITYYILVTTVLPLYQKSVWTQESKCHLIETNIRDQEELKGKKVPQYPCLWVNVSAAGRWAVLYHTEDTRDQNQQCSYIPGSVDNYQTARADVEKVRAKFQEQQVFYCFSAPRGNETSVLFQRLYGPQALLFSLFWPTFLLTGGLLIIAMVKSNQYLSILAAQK
Sequence of native BK channels in rat cerebral artery myocytes (Q62976 1-1148 isoform Q62976-2): as the sequence (Q62976 1-1148 isoform Q62976-2) above
Sequence of native BK channels in rat cerebral artery myocytes (P97678 whole entry): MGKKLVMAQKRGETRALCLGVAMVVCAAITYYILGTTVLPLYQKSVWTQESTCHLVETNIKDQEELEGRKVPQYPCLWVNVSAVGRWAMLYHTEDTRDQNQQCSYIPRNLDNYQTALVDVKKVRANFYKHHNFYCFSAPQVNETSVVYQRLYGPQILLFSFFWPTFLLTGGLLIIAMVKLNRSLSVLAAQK

## C[C@H](CCC(=O)O)[C@H]1CC[C@H]2[C@@H]3CC[C@@H]4C[C@H](O)CC[C@]4(C)[C@H]3CC[C@]12C [LC, 5β-cholanic acid 3α-ol]
[1]; Vm −40 to −30 mV, read-out: EC50 for increase in NPo
  EC50: 46 ± 6 µM
[1]; read-out: NPo at Emax (% of control)
  Emax: 350%
cbv1+β1 channels; 150 μM, 0.1 μM Ca2+
  LC-activation (as a percentage of NPo in vehicle): 139.9±32.9%
cbv1+β1 channels; 150 μM, 1 μM Ca2+, read-out: LC-activation (as a percentage of NPo in vehicle), maximal effect
  Emax at 150 µM: 244 ± 58.9%
cbv1+β1 channels; 150 μM, 30 μM Ca2+i, read-out: NPo in LC (% of control)
  Percent of control at 150 µM: 172 ± 9.5%
cbv1+β1 channels; 150 μM, FIG. 4B
  Decrease in mean close time: −60%
cbv1+β1 channels; 150 μM, patches with N=1, read-out: Channel mean closed time (% of control)
  Percent of control at 150 µM: 41%
cbv1+β1 channels; 150 μM, patches with N=1, read-out: Channel mean open time (% of control)
  Percent of control at 150 µM: 137%
cbv1+β1 channels; 150 μM, single-channel I/O patch (N=1), +20 mV, Ca2+i 10 μM
  Increase in Po: 320%
cbv1+β1 channels; I/O patches, Ca2+i 10 μM, read-out: NPo at Emax (% of control)
  Emax: 290 ± 45%
cbv1+β1 channels; I/O patches, Ca2+i 10 μM, ±20 mV, read-out: EC50 for increase in NPo
  EC50: 43.5 µM and 46 µM
